Test results as given in US20260297081A1, “COMPOUNDS AND METHODS OF TREATING CANCERS” (Cullgen Inc., priority 2023, published 2026).

Molecular target: CDK4 (Homo sapiens, UniProt P11802+Q16531)
Experiment: HiBiT detection of HiBiT-tagged CDK4 protein level in MCF7 cells, 16 hours (Table 8)
Format: cell-based
Design: expressed in transfected cells; host or cells: MCF7
Conditions: MCF7 cells stably expressing HiBiT tagged target proteins; for activity at 0.01 µM: 10 nM, read-out: % CDK4 Relative Level (10 nM); for activity at 0.1 µM: 100 nM, read-out: % CDK4 Relative Level (100 nM)
Method: HiBiT detection system quantitatively measures total amounts of HiBiT-tagged proteins using a luminescent based method. MCF7 cells stably expressing HiBiT tagged target proteins were treated with heterobifunctional compounds at indicated concentrations for 16 hours, then lysed with Nano-Glo HiBiT Lytic detection reagents.

Sequence of CDK4 (P11802 whole entry): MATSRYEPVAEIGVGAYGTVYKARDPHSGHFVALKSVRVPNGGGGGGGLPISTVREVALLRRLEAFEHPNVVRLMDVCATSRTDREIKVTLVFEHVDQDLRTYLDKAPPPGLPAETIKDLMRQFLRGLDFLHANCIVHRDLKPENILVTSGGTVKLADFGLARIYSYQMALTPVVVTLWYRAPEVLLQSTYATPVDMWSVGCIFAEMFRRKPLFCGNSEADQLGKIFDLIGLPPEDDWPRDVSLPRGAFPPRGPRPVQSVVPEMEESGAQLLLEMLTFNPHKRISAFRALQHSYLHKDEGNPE
Sequence of CDK4 (P24385 whole entry partner): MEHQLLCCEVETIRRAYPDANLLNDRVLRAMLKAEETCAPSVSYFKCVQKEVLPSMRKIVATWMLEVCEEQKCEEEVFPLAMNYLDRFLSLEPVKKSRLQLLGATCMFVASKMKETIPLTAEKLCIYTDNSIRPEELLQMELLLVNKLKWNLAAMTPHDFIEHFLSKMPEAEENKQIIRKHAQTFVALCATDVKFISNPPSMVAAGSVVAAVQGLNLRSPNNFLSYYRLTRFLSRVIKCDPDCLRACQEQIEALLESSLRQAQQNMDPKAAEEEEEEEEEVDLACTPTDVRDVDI
Sequence of CDK4 (Q16531 2-1140 limits assumed): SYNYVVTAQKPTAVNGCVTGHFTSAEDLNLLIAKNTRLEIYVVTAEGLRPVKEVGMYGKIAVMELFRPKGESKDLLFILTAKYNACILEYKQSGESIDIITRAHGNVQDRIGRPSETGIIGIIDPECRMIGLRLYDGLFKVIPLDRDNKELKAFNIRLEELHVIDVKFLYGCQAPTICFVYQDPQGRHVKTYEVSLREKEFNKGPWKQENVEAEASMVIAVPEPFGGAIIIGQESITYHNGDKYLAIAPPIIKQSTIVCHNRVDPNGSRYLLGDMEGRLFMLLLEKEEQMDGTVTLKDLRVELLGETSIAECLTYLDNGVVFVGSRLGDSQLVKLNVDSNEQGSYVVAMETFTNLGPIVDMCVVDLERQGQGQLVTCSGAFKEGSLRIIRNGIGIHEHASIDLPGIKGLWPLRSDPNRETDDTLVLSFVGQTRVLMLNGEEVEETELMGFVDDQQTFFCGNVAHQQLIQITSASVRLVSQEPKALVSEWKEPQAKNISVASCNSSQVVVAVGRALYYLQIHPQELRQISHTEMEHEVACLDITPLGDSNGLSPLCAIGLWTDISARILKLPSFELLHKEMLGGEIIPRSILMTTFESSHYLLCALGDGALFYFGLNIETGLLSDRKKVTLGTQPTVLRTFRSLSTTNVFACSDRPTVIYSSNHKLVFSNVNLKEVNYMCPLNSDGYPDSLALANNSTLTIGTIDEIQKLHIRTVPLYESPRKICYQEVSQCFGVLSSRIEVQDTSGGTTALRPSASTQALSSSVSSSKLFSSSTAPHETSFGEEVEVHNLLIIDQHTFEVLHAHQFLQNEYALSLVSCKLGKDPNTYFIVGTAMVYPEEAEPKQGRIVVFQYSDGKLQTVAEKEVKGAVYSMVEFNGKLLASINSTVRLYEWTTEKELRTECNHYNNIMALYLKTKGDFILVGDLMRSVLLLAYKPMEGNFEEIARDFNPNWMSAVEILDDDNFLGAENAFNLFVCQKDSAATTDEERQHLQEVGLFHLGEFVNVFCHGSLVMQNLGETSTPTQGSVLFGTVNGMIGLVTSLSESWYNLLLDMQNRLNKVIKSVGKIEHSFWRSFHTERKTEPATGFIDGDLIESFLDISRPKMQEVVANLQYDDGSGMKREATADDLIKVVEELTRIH

Compound	activity at 0.01 µM	activity at 0.1 µM
CC(C)Nc1ccc(C(=O)Nc2ccc(N(C)C)nn2)c(NC2CC3(CC(NC(=O)CN4CCN(Cc5ccc(Nc6ncc7cc(C(=O)N(C)C)n(C8CCCC8)c7n6)nc5)CC4)C3)C2)n1 (stereo not drawn) [CPD-562, 7-cyclopentyl-2-((5-((4-(2-((6-((3-((6-(dimethylamino)pyridazin-3-yl)carbamoyl)-6-(isopropylamino)pyridin-2-yl)amino)spiro[3.3]heptan-2-yl)amino)-2-oxoethyl)piperazin-1-yl)methyl)pyridin-2-yl)amino)-N,N-dimethyl-7H-pyrrolo[2,3-d]pyrimidine-6-carboxamide]	> 85%	> 85%
CC(=O)c1c(C)c2cnc(Nc3ccc(CN4CCC(CC(=O)NC5CC6(C5)CC(Nc5nc(NC(C)C)ccc5C(=O)Nc5ccc(N(C)C)nn5)C6)CC4)cn3)nc2n(C2CCCC2)c1=O (stereo not drawn) [CPD-593, 2-((6-(2-(1-((6-((6-acetyl-8-cyclopentyl-5-methyl-7-oxo-7,8-dihydropyrido[2,3-d]pyrimidin-2-yl)amino)pyridin-3-yl)methyl)piperidin-4-yl)acetamido)spiro[3.3]heptan-2-yl)amino)-N-(6-(dimethylamino)pyridazin-3-yl)-6-(isopropylamino)nicotinamide]	> 85%	> 85%
CCc1ccc(C(=O)Nc2ccc(N(C)C)nn2)c(NC2CC3(CC(NC(=O)CN4CCN(Cc5ccc(Nc6ncc7c(C)c(C(C)=O)c(=O)n(C8CCCC8)c7n6)nc5)CC4)C3)C2)c1 (stereo not drawn) [CPD-598, 2-((6-(2-(4-((6-((6-acetyl-8-cyclopentyl-5-methyl-7-oxo-7,8-dihydropyrido[2,3-d]pyrimidin-2-yl)amino)pyridin-3-yl)methyl)piperazin-1-yl)acetamido)spiro[3.3]heptan-2-yl)amino)-N-(6-(dimethylamino)pyridazin-3-yl)-4-ethylbenzamide]	55 to 85%	> 85%

Other lines, results leading:

activity at 0.01 µM	activity at 0.1 µM	Compound
> 85%	> 85%	CC(C)Nc1ccc(C(=O)Nc2ccc(N(C)C)nn2)c(NC2CC3(C2)CN(C(=O)CN2CCN(Cc4ccc(Nc5ncc6cc(C(=O)N(C)C)n(C7CCCC7)c6n5)nc4)CC2)C3)n1 [CPD-563, 7-cyclopentyl-2-((5-((4-(2-(6-((3-((6-(dimethylamino)pyridazin-3-yl)carbamoyl)-6-(isopropylamino)pyridin-2-yl)amino)-2-azaspiro[3.3]heptan-2-yl)-2-oxoethyl)piperazin-1-yl)methyl)pyridin-2-yl)amino)-N,N-dimethyl-7H-pyrrolo[2,3-d]pyrimidine-6-carboxamide]
> 85%	> 85%	CNc1ccc(C(=O)Nc2ccc(N(C)C)nn2)c(NCCCCCCC(=O)N2CCN(Cc3ccc(Nc4ncc(F)c(-c5cc(F)c6nc(C)n(C(C)C)c6c5)n4)nc3)CC2)n1 [CPD-604, N-(6-(dimethylamino)pyridazin-3-yl)-2-((7-(4-((6-((5-fluoro-4-(4-fluoro-1-isopropyl-2-methyl-1H-benzo[d]imidazol-6-yl)pyrimidin-2-yl)amino)pyridin-3-yl)methyl)piperazin-1-yl)-7-oxoheptyl)amino)-6-(methylamino)nicotinamide]
> 85%	> 85%	CNc1ccc(C(=O)Nc2ccc(N(C)C)nn2)c(NCCCCCCCC(=O)N2CCN(Cc3ccc(Nc4ncc(F)c(-c5cc(F)c6nc(C)n(C(C)C)c6c5)n4)nc3)CC2)n1 [CPD-605, N-(6-(dimethylamino)pyridazin-3-yl)-2-((8-(4-((6-((5-fluoro-4-(4-fluoro-1-isopropyl-2-methyl-1H-benzo[d]imidazol-6-yl)pyrimidin-2-yl)amino)pyridin-3-yl)methyl)piperazin-1-yl)-8-oxooctyl)amino)-6-(methylamino)nicotinamide]
